# Source: patent US4880820A, “Guanine derivatives” (Merck & Co., Inc., priority 1988, dated 1989)
# Columns and labels:
# [1] = tested on: Herpes simplex virus Type 1 (Schooler); test: Method 2: virus plaque reduction in MRC-5 cells, HSV-1; assay type: cell-based; details: Human alphaherpesvirus 1, MRC5, 72 h; HSV-1 (Schooler), MRC-5 cells, 3 days; 50% reduction of plaque development; read-out: ED50 (the source's name)
# Procedure: Method 2: Confluent monolayers of MRC-5 cells were incubated for one hour at 37° C. with 50-100 plaque forming units of the indicated virus. Following incubation, the cell monolayers were refed with maintenance medium containing 2% methyl cellulose and the chemical agent indicated. Duplicate cultures were incubated with each concentration of the chemical agent tested. Following further incubation for 3 days at 37° C., the monolayers were stained and the developed virus plaques were counted. The concentration (μg/ml) of each chemical agent which reduced plaque development by 50% (ED50) was determined.
# [2] = tested on: Herpes simplex virus Type 1 (Schooler); test: Method 1: inhibition of viral induced cytopathology in primary rabbit kidney cell cultures, HSV-1; assay type: cell-based; details: Human alphaherpesvirus 1; HSV-1 (Schooler), primary rabbit kidney cells; total suppression of cytopathology in 50% of cultures; read-out: Minimum Effective Concentration
# Procedure: (§1) Method 1: Confluent monolayers of primary rabbit kidney cell cultures were refed with maintenance medium containing serial dilutions of the test compounds and incubated overnight at 37° C. At each dilution, four cultures were challenged with approximately 10 TCID50 HSV-1, four cultures were challenged with approximately 10 TCID50 HSV-2,and two cultures were left as toxicity controls. Cultures were reincubated at 37° C. and observed for viral induced cytopathology at days 5 and 7. Minimum Effective Concentration (μg/ml) is defined as the concentration of antiviral compound required to totally suppress the development of viral cytopathology in 50% of the infected rabbit kidney cell cultures.
# [3] = tested on: Herpes simplex virus type 1 (HSV-1), strain Schooler; test: Parenteral (subcutaneous) treatment of Herpes simplex virus type 1 infection in mice; assay type: in vivo, ICR/Ha mice; details: s.c.
# Procedure: (§2) Twenty gram ICR/Ha mice were injected intraperitoneally (ip) with 0.5 ml of a 10^-5 dilution of a stock preparation of Herpes simplex virus type 1 (HSV-1), strain Schooler. This virus challenge infected each animal with approximately 50 to 100 LD50. Starting immediately after virus infection and continuing twice daily for 4 days, each animal was injected subcutaneously in groups of 10 with: 125 μg, 31 μg, 8 μg or 2 μg of compounds A, B or C; or placebo (physiological saline, pH 11.5). All compounds were solubilized in physiological saline, pH 11.5. The mice were observed daily for 15 days at the same time each day and the day of death was recorded for each animal.
# Statistical analyses [reference: Liddel, F.D.K., Evaluation of Survival in Challenge Experiments, Microbiol. Rev., 42, 237 (1978)]were performed on survival times transformed by the negative exponential transformation:
# t=number of days an animal survived
# T=duration of trial (15 days)
# A continuity correction was used to account for daily observation:
# Within each group, mice surviving through the trial period were assigned equally values of 0.9 and 1.0 to adjust for termination of the trial.
# Average survival time per group was calculated from average corrected transformed survival times [fc (t)] as follows:
# t avg=[T/log(0.1).[log(1-fc (t)]
# [4] = tested on: Herpes simplex virus type 1 (HSV-1), strain Schooler; test: Oral treatment of intraperitoneal HSV-1 infection of mice (Example 16); assay type: in vivo, ICR/Ha mice
# Procedure: as §2, with “(i.p.)” for “(ip)”, “LD50 s.” for “LD50.”, “7” for “4”, “treated by oral gavage” for “injected subcutaneously”, “with: 250 μg, 125 μg, 8 μg or 2 μg of (S)-9-(2,3-dihydroxy-1-propoxymethyl)guanine; 500 μg,” for “with:”, “racemic 9-(2,3-dihydroxy-1-propoxymethyl)guanine;” for “compounds A, B or C;”
# (§3) The statistical analyses were carried out as described in Example 15.
# [5] = tested on: Herpes simplex virus Type 2 (Curtis); test: Method 1: inhibition of viral induced cytopathology in primary rabbit kidney cell cultures, HSV-2; assay type: cell-based; details: Human alphaherpesvirus 2; HSV-2 (Curtis), primary rabbit kidney cells; total suppression of cytopathology in 50% of cultures; read-out: Minimum Effective Concentration
# Procedure: as §1
# [6] = tested on: Herpes simplex virus type 1 (HSV-1), strain Schooler; test: Oral treatment of intraperitoneal HSV-1 infection of mice (Example 17); assay type: in vivo, ICR/Ha mice; details: for Percent Survival: at 15 days
# Procedure: Twenty gram ICR/Ha mice were injected intraperitoneally (i.p.) with 0.5 ml of a 10^-5 dilution of a stock preparation of Herpes Simplex virus type 1 (HSV-1), strain Schooler. This virus challenge infected mice with approximately 50 to 100 LD50. Starting immediately after virus infection and continuing twice daily for 7 days, each animal was treated by oral gavage in groups of 10 with: 500 μg, 125 μg, 31 μg or 8 μg of (S)-9-(2,3-dihydroxy-1propoxymethyl)guanine; 500 μg, 125 μg, 31 μg or 8 μg of acyclovir or placebo (physiological saline, pH 11.5). All compounds were solubilized in physiological saline, pH 11.5.
# as §3
# [7] = tested on: Herpes simplex virus type 1 (HSV-1), strain Schooler; test: Parenteral (subcutaneous) treatment of Herpes simplex virus type 1 infection in mice; assay type: in vivo, ICR/Ha mice; details: tested not at the same time as A, B, C; for Percent Survival: at 15 days
# [8] = 2 μg/dose twice daily for 4 days, 0.2 mg/kg/day, ^3 (all): not statistically different from placebo
# [9] = 2 μg/dose twice daily for 4 days, 0.2 mg/kg/day, at 15 days
# [10] = 8 μg/dose twice daily for 4 days, 0.8 mg/kg/day, ^3 (all): not statistically different from placebo
# [11] = 8 μg/dose twice daily for 4 days, 0.8 mg/kg/day, at 15 days
# [12] = 31 μg/dose twice daily for 4 days, 3.1 mg/kg/day, ^3 (all): not statistically different from placebo
# [13] = 31 μg/dose twice daily for 4 days, 3.1 mg/kg/day, at 15 days
# [14] = 125 μg/dose twice daily for 4 days, 12.5 mg/kg/day, ^3 (B, acyclovir): not statistically different from placebo
# [15] = 125 μg/dose twice daily for 4 days, 12.5 mg/kg/day, at 15 days (acyclovir not at the same time)
# [16] = 31 μg/dose twice daily for 7 days, 3.1 mg/kg/day, ^3 (all): not statistically different from placebo
# [17] = 31 μg/dose twice daily for 7 days, 3.1 mg/kg/day, at 15 days (acyclovir not at the same time)
# [18] = 125 μg/dose twice daily for 7 days, 12.5 mg/kg/day, ^3 (racemate, acyclovir): not statistically different from placebo
# [19] = 125 μg/dose twice daily for 7 days, 12.5 mg/kg/day, at 15 days (acyclovir not at the same time)
# [20] = 500 μg/dose twice daily for 7 days, 50 mg/kg/day (acyclovir not at the same time)
# [21] = 500 μg/dose twice daily for 7 days, 50 mg/kg/day, at 15 days (acyclovir not at the same time)
# [22] = 125 μg/dose twice daily for 7 days, 12.5 mg/kg/day
# [23] = 500 μg/dose twice daily for 7 days, 50 mg/kg/day
Compound,EC50 [1],minimal effective concentration [2],"Avg. Survival Time [3, 8]","Percent Survival [3, 9]","Avg. Survival Time [3, 10]","Percent Survival [3, 11]","Avg. Survival Time [3, 12]","Percent Survival [3, 13]","Avg. Survival Time [3, 14]","Percent Survival [3, 15]","Avg. Survival Time [4, 16]","Percent Survival [4, 17]","Avg. Survival Time [4, 18]","Percent Survival [4, 19]","Avg. Survival Time [4, 20]","Percent Survival [4, 21]",minimal effective concentration [5],also measured
"Nc1nc2c(ncn2COCC(O)CO)c(=O)[nH]1 (racemic) [C, Racemic 9-(2,3-dihydroxy-1-propoxymethyl)guanine]",1 mg/L,3.1 to 6 µg/mL,6.7 days,10%,6.6 days,0%,7.2 days,0%,8.6 days,20%,7.6 days,0%,8.4 days,10%,10.7 days,20%,6 to 12 µg/mL,"Avg. Survival Time ([4]; 2 μg/dose twice daily for 7 days, 0.2 mg/kg/day, ^3 (all): not statistically different from placebo): 6.9 days; Percent Survival ([4]; 2 μg/dose twice daily for 7 days, 0.2 mg/kg/day, at 15 days): 0%; Avg. Survival Time ([4]; 8 μg/dose twice daily for 7 days, 0.8 mg/kg/day, ^3 (all): not statistically different from placebo): 6.8 days; Percent Survival ([4]; 8 μg/dose twice daily for 7 days, 0.8 mg/kg/day, at 15 days): 0%; protection over placebo-treated animals, as measured by average survival time ([4]; 50 mg/kg/day): conferred significant protection over placebo-treated animals"
"Nc1nc2c(ncn2COCCO)c(=O)[nH]1 [Acyclovir, 9-(2-hydroxyethoxymethyl)guanine]",–,–,–,–,–,–,–,–,7.0 days,6%,6.3 days,0%,6.6 days,0%,8.2 days,20%,–,"Percent Survival ([4]; 1000 μg/dose, 100 mg/kg/day, at 15 days, tested not at the same time): 60%; Avg. Survival Time ([4]; 1000 μg/dose, 100 mg/kg/day, tested not at the same time): 11.4 days; Avg. Survival Time ([6]; 8 μg/dose twice daily for 7 days, 0.8 mg/kg/day, ^b (all): not statistically different from placebo): 6.1 days; Percent Survival ([6]; 8 μg/dose twice daily for 7 days, 0.8 mg/kg/day): 0%; Avg. Survival Time ([6]; 31 μg/dose twice daily for 7 days, 3.1 mg/kg/day, ^b (all): not statistically different from placebo): 6.5 days; Percent Survival ([6]; 31 μg/dose twice daily for 7 days, 3.1 mg/kg/day): 0%; Avg. Survival Time [6, 22]: 7.6 days; Percent Survival [6, 22]: 10%; Avg. Survival Time [6, 23]: 8.7 days; Percent Survival [6, 23]: 20%; protection over placebo-treated animals, as measured by average survival time ([6]; 12.5 mg/kg/day): conferred significant protection over placebo-treated animals; protection over placebo-treated animals, as measured by average survival time ([6]; 50 mg/kg/day): conferred significant protection over placebo-treated animals; Percent Survival ([7]; 500 μg/dose, 50 mg/kg/day): 0%; Avg. Survival Time ([7]; 500 μg/dose, 50 mg/kg/day): 7.8 days; Percent Survival ([7]; 1000 μg/dose, 100 mg/kg/day): 10%; Avg. Survival Time ([7]; 1000 μg/dose, 100 mg/kg/day): 7.8 days"
"Nc1nc2c(ncn2COC[C@H](O)CO)c(=O)[nH]1 [B, (R)-9-(2,3-dihydroxy-1-propoxymethyl)guanine]",6.2 mg/L,25 µg/mL,6.0 days,0%,6.3 days,0%,6.5 days,10%,7.5 days,10%,–,–,–,–,–,–,25 to 50 µg/mL,–
